Results reported in patent publication US20260234183A1, “SOLID STATE FORMS OF FOSGONIMETON AND SALTS THEREOF” (ASSIA CHEMICAL INDUSTRIES LTD., priority 2023, published 2026).
Entries after “also recorded” stand apart in the source; their conditions may differ. Counter-ions that a name gives are not always drawn. Square brackets hold non-standard residues; d marks the D form. Peptide text beside a SMILES is read from it. * marks the point of attachment. pY = N[C@@H](Cc1ccc(OP(=O)(O)O)cc1)C(=O)O; Hexanoyl = CCCCCC(=O)*; Ahx = NCCCCCC(=O)O

How the values were obtained:
Assay type in all cases: physicochemical
[1] = Slurry experiments in solvent, XRPD analysis after filtration; conditions: for XRPD after slurry experiments: various solvents, ambient temperature, 1 or 7 days
Method: (§1) Sample is applied directly on a silicon plate holder. The X-ray powder diffraction pattern was measured with Philips X′Pert PRO X-ray powder diffractometer, equipped with Cu irradiation source=1.54184 Å (Ångström), X'Celerator (2.022° 2θ) detector. Scanning parameters: angle range: 3-40 deg., step size 0.0167, time per step 37 s, continuous scan.
(§2) Samples of Fosgonimeton mono sodium salt form N2 were subjected to slurry and to sauna conditions in various conditions. In the slurry experiments, 50 mg of the sample is placed in a 2 mL glass vial with 0.5 mL of solvent. Obtained suspension is stirred at ambient temperature for 1 or 7 days. XRPD analysis is performed on crystalline material after filtration. In the sauna experiments, 50 mg of crystalline material is placed in an Eppendorf tube. 0.5 mL of solvent is placed in a sealed 10 mL glass vial, along with Eppendorf tube. Crystalline material is checked by XRPD analysis after 1 or 7 days.
as §2, with “N5” for “N2”
as §2, with “potassium” for “sodium”, “K1” for “N2”
as §2, with “Fosgonimeton” for “Fosgonimeton mono sodium salt”, “form 1” for “form N2”, “to Sauna” for “to sauna”

[2] = Heating stress test, XRPD analysis; conditions: 100° C./60 minutes
Method: as §1
A sample of Fosgonimeton mono sodium salt form N2 was subjected to heating to 100° C. for 60 minutes.
A sample of Fosgonimeton mono sodium salt form N5 was subjected to heating to 100° C. for 60 minutes.
A sample of Fosgonimeton mono potassium salt form K1 was subjected to heating to 100° C. for 60 minutes.
A sample of Fosgonimeton form 1 was subjected to heating to 100° C. for 60 minutes.

[3] = Pressure stress test (Specac Hydraulic Press), XRPD analysis; conditions: 2 tons/2 minutes
Method: as §1
A sample of Fosgonimeton mono sodium salt form N2 was subjected to a pressure of 2 ton (Specac Hydraulic Press, set to 2 tons).
A sample of Fosgonimeton mono sodium salt form N5 was subjected to a pressure of 2 ton (Specac Hydraulic Press, set to 2 tons).
A sample of Fosgonimeton mono potassium salt form K1 was subjected to a pressure of 2 tons (Specac Hydraulic Press, set to 2 tons).
A sample of Fosgonimeton form 1 was subjected to a pressure of 2 tons (Specac Hydraulic Press, set to 2 tons).

[4] = Sauna experiments (solvent vapour in sealed vial), XRPD analysis; conditions: for XRPD after sauna experiments: various solvents, 1 or 7 days
Method: as §1, §2
as §2, with “N5” for “N2”
as §2, with “potassium” for “sodium”, “K1” for “N2”
as §2, with “Fosgonimeton” for “Fosgonimeton mono sodium salt”, “form 1” for “form N2”, “to Sauna” for “to sauna”

Row | Compound | XRPD after Slurry ([1]; 2-Propanol/20-25° C./1 day) | XRPD after Slurry ([1]; Acetone/20-25° C./1 day) | XRPD after Slurry ([1]; Ethanol, 96%/20-25° C./1 day) | XRPD after Slurry ([1]; Ethyl acetate/20-25° C./1 day) | XRPD after Slurry ([1]; Acetone/20-25° C./7 days) | XRPD after Slurry ([1]; Ethanol, 96%/20-25° C./7 days) | XRPD after slurry experiments [1] | XRPD after Sauna ([4]; 2-Propanol/20-25° C./7 days) | XRPD after Sauna ([4]; Acetone/20-25° C./7 days) | XRPD after Sauna ([4]; Ethanol, 96%/20-25° C./7 days) | XRPD after Sauna ([4]; Ethyl acetate/20-25° C./7 days) | XRPD after Sauna ([4]; Water/20-25° C./7 days) | XRPD after sauna experiments [4] | XRPD after Heating ([2]; mono sodium salt) | XRPD after Pressure ([3]; mono sodium salt) | further results
1 | CCCCCC(=O)N[C@@H](Cc1ccc(OP(=O)(O)O)cc1)C(=O)N[C@H](C(=O)NCCCCCC(N)=O)[C@@H](C)CC [Fosgonimeton form 1, [4-[(2S)-3-[[(2S,3S)-1-[(6-amino-6-oxohexyl)amino]-3-methyl-1-oxopentan-2-yl]amino]-2-(hexanoylamino)-3-oxopropyl]phenyl]dihydrogen phosphate] (Hexanoyl-[pY]-Ile-[Ahx]-NH2) | No polymorphic change | No polymorphic change | No polymorphic change | No polymorphic change | – | – | – | – | – | – | – | – | – | – | – | XRPD after Heating [2]: no polymorphic conversion; also recorded: No polymorphic change; XRPD after Pressure [3]: no polymorphic conversion; also recorded: No polymorphic change
2 | CCCCCC(=O)N[C@@H](Cc1ccc(OP(=O)(O)O)cc1)C(=O)N[C@H](C(=O)NCCCCCC(N)=O)[C@@H](C)CC [Fosgonimeton mono potassium salt form K1, Fosgonimeton mono potassium salt] (Hexanoyl-[pY]-Ile-[Ahx]-NH2) | – | – | – | – | No polymorphic change | No polymorphic change | no change in the starting material | No polymorphic change | No polymorphic change | No polymorphic change | No polymorphic change | No polymorphic change | no change in the starting material | – | – | XRPD after Slurry ([1]; 2-Propanol/20-25° C./7 days): No polymorphic change; XRPD after Slurry ([1]; Ethyl acetate/20-25° C./7 days): No polymorphic change; XRPD after Heating ([2]; mono potassium salt): no polymorphic conversion; also recorded: No polymorphic change; XRPD after Pressure ([3]; mono potassium salt): no polymorphic conversion; also recorded: No polymorphic change
3 | CCCCCC(=O)N[C@@H](Cc1ccc(OP(=O)(O)O)cc1)C(=O)N[C@H](C(=O)NCCCCCC(N)=O)[C@@H](C)CC [Fosgonimeton mono sodium salt form N2, Fosgonimeton mono sodium salt] (Hexanoyl-[pY]-Ile-[Ahx]-NH2) | No polymorphic change | No polymorphic change | No polymorphic change | No polymorphic change | No polymorphic change | No polymorphic change | no change in the starting material | No polymorphic change | No polymorphic change | No polymorphic change | No polymorphic change | No polymorphic change | no change in the starting material | no polymorphic conversion; also recorded: No polymorphic change | no polymorphic conversion; also recorded: No polymorphic change | XRPD after Slurry ([1]; Water/20-25° C./7 days): No polymorphic change
4 | CCCCCC(=O)N[C@@H](Cc1ccc(OP(=O)(O)O)cc1)C(=O)N[C@H](C(=O)NCCCCCC(N)=O)[C@@H](C)CC [Fosgonimeton mono sodium salt form N5, Fosgonimeton mono sodium salt] (Hexanoyl-[pY]-Ile-[Ahx]-NH2) | No polymorphic change | – | – | No polymorphic change | No polymorphic change | – | no change in the starting material | No polymorphic change | – | No polymorphic change | No polymorphic change | – | no change in the starting material | no polymorphic conversion | no polymorphic conversion; also recorded: No polymorphic change | –
